These results are taken from US8586588B2, “Aryl pyridazinone derivatives and their use as H3 receptor ligands” (Cephalon, Inc., priority 2006, dated 2013).

Structures can show the parent of a compound that is named as a salt.

For data set [1], the target named is T1, human H3 receptor (Homo sapiens, UniProt Q9Y5N1).
T1 construct: expressed in transfected cells
In words: Human H3 radioligand binding ([3H]-N-alpha-methylhistamine, CHO cell membranes, SPA). As to conditions: Table B, binding constant as letter class. In short, it runs like this: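 Scintillation proximity format: bead-proximal [3H]-N-alpha-methylhistamine (approximately 1 nM final) bound to human H3 receptor in CHO membranes was counted after 4 h at room temperature, light-protected. Buffer was pH 7.4 Tris/MgCl2/BSA; test compounds spanned 0.01 nM-30 μM; 10 μM clobenpropit set non-specific binding.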

Data set [2] deals with T2, rat histamine H3 receptor (Rattus norvegicus, UniProt Q9QYN8).
T2 construct: encoding the entire 445-amino-acid rat histamine H3 receptor; expressed in transfected cells
T2 sequence (Q9QYN8 whole entry): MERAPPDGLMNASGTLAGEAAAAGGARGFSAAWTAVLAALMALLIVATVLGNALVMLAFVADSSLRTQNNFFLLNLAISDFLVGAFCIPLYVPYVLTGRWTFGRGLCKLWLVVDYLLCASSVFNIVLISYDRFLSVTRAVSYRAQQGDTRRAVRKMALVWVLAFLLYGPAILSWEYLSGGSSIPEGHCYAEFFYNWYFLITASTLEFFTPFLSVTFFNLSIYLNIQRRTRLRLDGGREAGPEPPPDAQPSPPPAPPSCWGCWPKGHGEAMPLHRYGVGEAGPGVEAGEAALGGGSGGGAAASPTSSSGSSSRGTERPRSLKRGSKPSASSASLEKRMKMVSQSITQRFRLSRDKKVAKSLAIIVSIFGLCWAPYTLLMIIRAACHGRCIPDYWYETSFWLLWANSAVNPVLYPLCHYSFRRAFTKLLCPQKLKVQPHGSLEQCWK
In words: Rat H3 radioligand binding ([3H]-N-alpha-methylhistamine, CHO-A3 cell membranes, SPA). As to conditions: Table B, binding constant as letter class; read-out: rat H3 Ki. The essentials: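 Scintillation proximity displacement of about 1 nM [3H]-N-alpha-methylhistamine, test compound 0.01 nM-30 μM, 4 h, room temperature, in the dark. Receptor source: rat H3 stably transfected into CHO-A3 cells, 10 μg membrane protein, Tris-HCl pH 7.4/MgCl2/BSA buffer. Nonspecific binding defined by 10 μM clobenpropit.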

T1 sequence (Q9Y5N1 whole entry): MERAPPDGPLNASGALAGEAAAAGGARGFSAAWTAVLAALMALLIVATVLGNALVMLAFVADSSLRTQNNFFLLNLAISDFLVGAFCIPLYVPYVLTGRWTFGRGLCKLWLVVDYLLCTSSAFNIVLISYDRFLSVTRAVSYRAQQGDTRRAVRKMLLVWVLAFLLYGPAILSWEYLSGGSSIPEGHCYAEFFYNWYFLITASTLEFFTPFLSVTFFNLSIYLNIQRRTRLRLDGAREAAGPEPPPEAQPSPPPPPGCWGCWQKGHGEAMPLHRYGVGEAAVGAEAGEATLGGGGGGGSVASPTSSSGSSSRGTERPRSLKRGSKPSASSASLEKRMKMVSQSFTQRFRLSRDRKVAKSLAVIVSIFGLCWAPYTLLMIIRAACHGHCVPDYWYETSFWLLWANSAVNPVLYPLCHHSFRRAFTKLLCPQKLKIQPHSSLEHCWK

For orientation: melting point means the temperature of the solid-liquid transition. `C[C@@H]1CCCN1CCCOc1ccc(-c2ccc(=O)n(C)n2)cc1` (as salt: HCl) [Example 1, 2-Methyl-6-{4-[3-((R)-2-methyl-pyrrolidin-1-yl)-propoxy]-phenyl}-2H-pyridazin-3-one] had a melting point of 183 to 185 °C. `Cn1nc(-c2ccc(OCCCN3CCCCC3)cc2)ccc1=O` (as salt: HCl) [Example 2, 2-Methyl-6-[4-(3-piperidin-1-yl-propoxy)-phenyl]-2H-pyridazin-3-one] displayed a melting point of 200 to 201 °C.

`CC(C)n1nc(-c2ccc(OCCCN3CCCCC3)cc2)ccc1=O` (as salt: HCl) [Example 3, 2-Isopropy1-6-[4-(3-piperidin-1-yl-propoxy)-pheny1]-2H-pyridazin-3-one] returned a melting point of 118 to 122 °C. As to `C[C@@H]1CCCN1CCCOc1ccc(-c2ccc(=O)n(C)n2)cc1F` (as salt: HCl) [Example 7, 6-{3-Fluoro-4-[3-((R)-2-methyl-pyrrolidin-1-yl)-propoxy]-phenyl}-2-methyl-2H-pyridazin-3-one], the melting point lay in the range of 140 to 142 °C. With `O=c1ccc(-c2ccc(OCCCN3CCCCC3)c(F)c2)nn1-c1ccccc1` (as salt: HCl) [Example 10, 6-[3-Fluoro-4-(3-piperidin-1-yl-propoxy)-phenyl]-2-phenyl-2H-pyridazin-3-one], the melting point lay within 230 to 232 °C. `C[C@@H]1CCCN1CCCOc1ccc(-c2n[nH]c(=O)c3c2CCC3)cc1` (as salt: HCl) [Example 12, 4-{4-[3-((R)-2-Methyl-pyrrolidin-1-yl)-propoxy]-phenyl}-2,5,6,7-tetrahydro-cyclopenta[d]pyridazin-1-one]: the melting point came to 147 °C.

Regarding `C[C@H](COc1ccc(-c2ccc(=O)n(C)n2)cc1)CN1CCC[C@H]1C` (as salt: HCl) [Example 13, 2-Methyl-6-{4-[(S)-2-methyl-3-((R)-2-methyl-pyrrolidin-1-yl)-propoxy]-phenyl}-2H-pyridazin-3-one], the melting point was in the range of 188 to 190 °C.

Consider `Cn1nc(-c2ccc(OCCCN3CCC[C@H]3CO)cc2)ccc1=O` (as salt: HCl) [Example 14, 6-{4-[3-((S)-2-Hydroxymethyl-pyrrolidin-1-yl)-propoxy]-phenyl}-2-methyl-2H-pyridazin-3-one], for which the melting point came out at 169 °C.

`Cn1nc(-c2ccc(OCCCN3CCC[C@@H]3CO)cc2)ccc1=O` (as salt: HCl) [Example 15, 6-{4-[3-((R)-2-Hydroxymethyl-pyrrolidin-1-yl)-propoxy]-phenyl}-2-methyl-2H-pyridazin-3-one] came in with a melting point of 166 to 167 °C. As to `C[C@@H]1CCCN1CCCOc1ccc(C2=NN(Cc3ccccc3)C(=O)CC2)cc1` (as salt: HCl) [Example 17, 2-Benzyl-6-{4-[3-((R)-2-methyl-pyrrolidin-1-yl)-propoxy]-phenyl}-4,5-dihydro-2H-pyridazin-3-one], the melting point fell in the range of 56 to 58 °C. Still for that read-out and setting: next, `C[C@@H]1CCCN1CCCOc1ccc(-c2ccc(=O)n(Cc3ccccc3)n2)cc1` (as salt: HCl) [Example 18, 2-Benzyl-6-{4-[3-((R)-2-methyl-pyrrolidin-1-yl)-propoxy]-phenyl}-2H-pyridazin-3-one]: 228 to 230 °C; `C[C@@H]1CCCN1CCCOc1ccc(C2=NN(c3ccccc3)C(=O)CC2)cc1` (as salt: HCl) [Example 19]: 213 to 215 °C. As to `C[C@@H]1CCCN1CCCOc1ccc(-c2ccc(=O)n(-c3ccccc3)n2)cc1` (as salt: HCl) [Example 20, 6-{4-[3-((R)-2-Methyl-pyrrolidin-1-yl)-propoxy]-phenyl}-2-phenyl-2H-pyridazin-3-one], the melting point fell in the range of 82 to 86 °C. For `CC1CCC(C)N1CCCOc1ccc(-c2nn(C(C)C)c(=O)c3ccsc23)cc1` (centres unmarked) (as salt: HCl) [Example 23, 7-{4-[3-(2,5-Dimethyl-pyrrolidin-1-yl)-propoxy]-phenyl}-5-isopropyl-5H-thieno[2,3-d]pyridazin-4-one], the melting point is 158 to 159 °C. As a reminder, the Ki is a measure of affinity in units of concentration, obtained from inhibition or displacement. Take `C[C@@H]1CCCN1CCCOc1ccc(-c2cn[nH]c(=O)c2)cc1` [Example 223, 5-{4-[3-((R)-2-Methyl-pyrrolidin-1-yl)-propoxy]-phenyl}-2H-pyridazin-3-one]: the Ki in data set [1] and in data set [2] was 0.0001 to 0.1 µM each time. For the molecule `COCn1ncc(-c2ccc(OCCCN3CCC[C@H]3C)cc2C)cc1=O` [Example 230, 2-Methoxymethyl-5-{2-methyl-4-[3-((R)-2-methyl-pyrrolidin-1-yl)-propoxyl]-phenyl}-2H-pyridazin-3-one], the Ki in data set [1] and in data set [2] was 0.0001 to 0.1 µM in each case. Turning to `Cc1cc(OCCCN2CCC[C@H]2C)ccc1-c1cn[nH]c(=O)c1` [Example 231, 5-{2-methyl-4-[3-((R)-2-methyl-pyrrolidin-1-yl)-propoxyl]-phenyl}-2H-pyridazin-3-one], the Ki in data set [1] and in data set [2] was 0.0001 to 0.1 µM in each case. For the molecule `COCn1ncc(-c2ccc(OCCCN3CCCCC3)cc2C)cc1=O` [Example 232, 2-Methoxymethyl-5-[2-methyl-4-(3-piperidin-1-yl-propoxy)-phenyl]-2H-pyridazin-3-one], the Ki in data set [1] and in data set [2] was 0.0001 to 0.1 µM each time. Take `COCn1ncc(-c2ccc(OC3CCN(C4CCC4)CC3)cc2C)cc1=O` [Example 234, 5-[4-(1-Cyclobutyl-piperidin-4-yloxy)-2-methyl-phenyl]-2-methoxymethyl-2H-pyridazin-3-one]: the Ki in data set [1] and in data set [2] was 0.0001 to 0.1 µM throughout. As to `COCn1ncc(-c2ccc(OCCCN3CCC[C@H]3C)cc2)c(OC)c1=O` [Example 235, 4-Methoxy-2-methoxymethyl-5-{4-[3-((R)-2-methyl-pyrrolidin-1-yl)-propoxy]-phenyl}-2H-pyridazin-3-one], the Ki in data set [1] and in data set [2] was 0.0001 to 0.1 µM each time.

For the molecule `COCn1ncc(OC)c(-c2ccc(OCCCN3CCC[C@H]3C)cc2)c1=O` [Example 236, 5-Methoxy-2-methoxymethyl-4-{4-[3-((R)-2-methyl-pyrrolidin-1-yl)-propoxy]-phenyl}-2H-pyridazin-3-one], the Ki in data set [1] and in data set [2] was 0.0001 to 0.1 µM each time.

With `COc1cn[nH]c(=O)c1-c1ccc(OCCCN2CCC[C@H]2C)cc1` [Example 237, 5-Methoxy-4-{4-[3-((R)-2-methyl-pyrrolidin-1-yl)-propoxy]-phenyl}-2H-pyridazin-3-one], the Ki in data set [1] and in data set [2] was 0.0001 to 0.1 µM throughout. Regarding `O=c1ccc(-c2ccc(OCCCN3CCOCC3)cc2)n[nH]1` [Example 238, 6-[4-(3-Morpholin-4-yl-propoxy)-phenyl]-2H-pyridazin-3-one], the Ki in data set [1] and in data set [2] was above 1 µM throughout.

For the molecule `C[C@H]1CCCN1CCCOc1ccc(-c2ccc(=O)[nH]n2)cc1` [Example 239, 6-{4-[3-((S)-2-Methyl-pyrrolidin-1-yl)-propoxy]-phenyl}-2H-pyridazin-3-one], the Ki in data set [1] and in data set [2] was 0.0001 to 0.1 µM throughout. For `CCN1N=C(c2ccc(OC3CCN(C4CCC4)CC3)cc2)C2CC2C1=O` (centres unmarked) [Example 250, 5-[4-(1-Cyclobutyl-piperidin-4-yloxy)-phenyl]-3-ethyl-3,4-diaza-bicyclo[4.1.0]hept-4-en-2-one], the Ki in data set [1] and in data set [2] was 0.0001 to 0.1 µM in each case. Regarding `CC(C)N1N=C(c2ccc(OC3CCN(C4CCC4)CC3)cc2)C2CC2C1=O` (centres unmarked) [Example 251, 5-[4-(1-Cyclobutyl-piperidin-4-yloxy)-phenyl]-3-isopropyl-3,4-diaza-bicyclo[4.1.0]hept-4-en-2-one], the Ki in data set [1] and in data set [2] was 0.0001 to 0.1 µM throughout. Regarding `CN1N=C(c2ccc(OC3CCN(C4CCC4)CC3)cc2)C2CC2C1=O` (centres unmarked) [Example 252, 5-[4-(1-Cyclobutyl-piperidin-4-yloxy)-phenyl]-3-methyl-3,4-diaza-bicyclo[4.1.0]hept-4-en-2-one], the Ki in data set [1] and in data set [2] was 0.0001 to 0.1 µM in each case. `O=C1C2CC2C(c2ccc(OC3CCN(C4CCC4)CC3)cc2)=NN1c1ccc(F)cc1` (centres unmarked) [Example 253, 5-[4-(1-Cyclobutyl-piperidin-4-yloxy)-phenyl]-3-(4-fluoro-phenyl)-3,4-diaza-bicyclo[4.1.0]hept-4-en-2-one]: the Ki in data set [1] and in data set [2] was 0.0001 to 0.1 µM in each case. For the molecule `O=C1C2CC2C(c2ccc(OC3CCN(C4CCC4)CC3)cc2)=NN1CC(F)(F)F` (centres unmarked) [Example 254, 5-[4-(1-Cyclobutyl-piperidin-4-yloxy)-phenyl]-3-(2,2,2-trifluoro-ethyl)-3,4-diaza-bicyclo[4.1.0]hept-4-en-2-one], the inhibition constant Ki in data set [1] and in data set [2] was 0.0001 to 0.1 µM each time. Regarding `CN1N=C(c2ccc(OC3CCN(C4CCCC4)CC3)cc2)C2CC2C1=O` (centres unmarked) [Example 260, 5-[4-(1-Cyclopentyl-piperidin-4-yloxy)-phenyl]-3-methyl-3,4-diaza-bicyclo[4.1.0]hept-4-en-2-one], the Ki in data set [1] and in data set [2] was 0.0001 to 0.1 µM each time. On to `O=C1NN=C(c2ccc(OC3CCN(C4CCCC4)CC3)cc2)C2CC12` (centres unmarked) [Example 261, 5-[4-(1-Cyclopentyl-piperidin-4-yloxy)-phenyl]-3,4-diaza-bicyclo[4.1.0]hept-4-en-2-one], for which the Ki in data set [1] and in data set [2] was 0.0001 to 0.1 µM throughout.

Turning to `C[C@@H]1CCCN1CCCOc1ccc(-n2nc(C3CC3)ccc2=O)cc1` [Example 262, 6-Cyclopropyl-2-{4-[3-((R)-2-methyl-pyrrolidin-1-yl)-propoxy]-phenyl}-2H-pyridazin-3-one], the Ki is 0.0001 to 0.1 µM in data set [1] and 0.101 to 0.5 µM in data set [2].
